Target: Cdk2 (Homo sapiens, UniProt P24941)
Assay: p-Cl-ANS fluorescent binding assay
Settings: for cooperativity with the allosteric ANS site: based on p-Cl-ANS fluorescent binding studies; for effect on the binding (fluorescence) of p-Cl-ANS: orthosteric ligand titrated into Cdk2 with p-Cl-ANS

| Structure (SMILES) | cooperativity with the allosteric ANS site | effect on the binding (fluorescence) of p-Cl-ANS |
| --- | --- | --- |
| Nc1ncnc2c1ncn2[C@@H]1O[C@H](COP(=O)(O)OP(=O)(O)OP(=O)(O)O)[C@@H](O)[C@H]1O [ATP] | only weakly cooperative, if at all | little effect |
| Nc1ncnc2c1ncn2[C@@H]1O[C@H](COP(=O)(O)OP(=O)(O)NP(=O)(O)O)[C@@H](O)[C@H]1O [AMP-PNP, adenylyl-imidodiphosphate] | only weakly cooperative, if at all | little effect |

From article PMC8204636 (ACS chemical biology, 2020)
